Laboratory results: patent US11014917B2, “5-fluoro-c-(aryl or heterocyclyl)-glycoside derivatives useful as dual SGLT1 / SGLT2 modulators” (Janssen Pharmaceutica NV, priority 2017, dated 2021)

Columns and labels:
human SGLT2 = biological target: T1, human SGLT2 (Homo sapiens, UniProt P31639); test: SGLT2 assay: Na-dependent 14C-AMG uptake in CHO-K1 cells stably expressing human SGLT2; format: cell-based; settings: for IC50: average if tested more than once; for SGLT2 %-inhibition / inhibition at 0.3 µM: @ 0.3 μM
T1 construct: expressed in transfected cells
T1 sequence (P31639 1-672): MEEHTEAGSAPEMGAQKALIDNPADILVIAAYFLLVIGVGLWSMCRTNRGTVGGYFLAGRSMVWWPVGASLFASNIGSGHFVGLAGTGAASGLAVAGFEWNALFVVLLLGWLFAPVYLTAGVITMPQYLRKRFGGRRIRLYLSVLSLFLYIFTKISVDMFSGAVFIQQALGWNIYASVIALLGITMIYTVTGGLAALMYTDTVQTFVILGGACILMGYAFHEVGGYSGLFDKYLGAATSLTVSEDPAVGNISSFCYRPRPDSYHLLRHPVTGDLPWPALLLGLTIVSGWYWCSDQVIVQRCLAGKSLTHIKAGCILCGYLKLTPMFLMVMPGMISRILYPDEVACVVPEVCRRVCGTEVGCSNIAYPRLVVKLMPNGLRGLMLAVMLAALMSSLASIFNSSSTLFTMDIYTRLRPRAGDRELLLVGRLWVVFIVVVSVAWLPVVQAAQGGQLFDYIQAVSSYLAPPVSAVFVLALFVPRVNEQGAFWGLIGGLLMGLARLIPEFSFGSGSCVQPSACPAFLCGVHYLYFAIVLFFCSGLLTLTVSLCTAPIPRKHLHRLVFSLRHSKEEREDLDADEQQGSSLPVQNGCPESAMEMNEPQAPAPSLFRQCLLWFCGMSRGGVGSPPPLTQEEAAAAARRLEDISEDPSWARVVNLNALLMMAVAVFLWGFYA
Description: (§1) The ability of the compounds of formula (I) of the present invention to treat an SGLT-mediated condition was determined using the following procedures:
(§2) SGLT1 and SGLT2 were cloned in form of cDNA from human small intestine (Genbank M24847), and from human kidney (Genbank M95549), respectively. Subsequently, each full cDNA was subcloned into pcDNA with each construct's integrity verified through follow-on sequencing. To generate CHO-K1 cells that stably express human SGLT1 or human SGLT2, CHO-K1 cells were transfected using DMRIE-C reagent (Life Technologies, Gaithersburg, Md.). Transfected cells were then selected in the presence of 500 μg/ml of the Geneticin (G418 Cellgro Catalog No. 30234-Cl)
(§3) Individual clones were then characterized using the following cell-based assay for sodium-dependent glucose transport:
(§4) Inhibition of SGLT1 and SGLT2 activity was assessed in CHO K1 cells stably expressing either human SGLT1 or SGLT2, using the SGLT specific glucose analog methyl-glucopyranoside (Sigma Catalog No. M-9376). Cells were plated (45,000 cells/well) in white wall 96-well plates (COSTAR, Cat #3903) for 24 hours in growth medium, then a final concentration of 10 mM Na-Butyrate (ALDRICH Cat #30341-0) was added. The cells were incubated for 24 hours. On the day of the assay, cells were rinsed and treated with test compounds (at concentrations of 0.001 μM to 10 μM) in assay buffer (50 mM HEPES, 20 mM Tris base, 5 mM KCl, 1 mM MgCl2, 1 mM CaCl2 and 137 mM NaCl, pH 7.4) for 10 minutes. Cells were then incubated with ^14C-a-methyl-d-glucopyranoside (AMG, Amersham Catalog No. CFB 76), using 0.07 μCi per well in 500 μM AMG final concentration. The cells were incubated for 2 hours at 37° C. with 5% CO2 and washed two times with ice-cold Phosphate Buffer Solution (Cellgro Catalog No. 21030-CV). The cells were then solubilized by adding 60 μl of MICROSCINT™20 and the Na-dependent ^14C-AMG uptake was quantified by measuring radioactivity. Plates were counted in a TopCount (Packard, Meriden, Conn.)
(§5) Representative compounds of the present invention were tested according to the procedures as described in Biological Example 1 and 2 above, with results as listed in Table 5, below. Results are reported as the %-inhibition or IC50 value. Variability for the functional assay was typically within 20%.

human SGLT1 = biological target: T2, human SGLT1 (Homo sapiens, UniProt P13866); test: SGLT1 assay: Na-dependent 14C-AMG uptake in CHO-K1 cells stably expressing human SGLT1; format: cell-based; settings: for IC50: average if tested more than once; for SGLT1 %-inhibition / inhibition at 0.3 µM: @ 0.3 μM
T2 construct: expressed in transfected cells
T2 sequence (P13866 1-664): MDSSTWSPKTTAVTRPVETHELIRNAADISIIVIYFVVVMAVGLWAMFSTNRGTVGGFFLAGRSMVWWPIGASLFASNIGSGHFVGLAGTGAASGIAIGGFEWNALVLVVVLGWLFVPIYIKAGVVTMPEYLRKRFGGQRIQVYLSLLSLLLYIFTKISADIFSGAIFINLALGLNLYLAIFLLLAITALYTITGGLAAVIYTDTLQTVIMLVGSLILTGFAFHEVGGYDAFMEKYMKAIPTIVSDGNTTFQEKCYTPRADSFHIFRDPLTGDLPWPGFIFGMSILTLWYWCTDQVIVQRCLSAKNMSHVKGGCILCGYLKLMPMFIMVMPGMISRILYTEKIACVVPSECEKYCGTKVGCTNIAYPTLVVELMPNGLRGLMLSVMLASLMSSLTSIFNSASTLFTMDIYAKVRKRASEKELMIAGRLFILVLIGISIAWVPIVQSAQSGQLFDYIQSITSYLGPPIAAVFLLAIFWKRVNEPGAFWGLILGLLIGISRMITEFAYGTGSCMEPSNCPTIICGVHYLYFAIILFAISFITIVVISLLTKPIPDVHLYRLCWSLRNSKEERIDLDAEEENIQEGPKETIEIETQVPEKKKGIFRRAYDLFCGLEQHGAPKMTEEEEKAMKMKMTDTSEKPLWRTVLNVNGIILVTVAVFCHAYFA
Description: as §1, §2, §3, §4, §5

| IC50 (human SGLT2) [µM] | IC50 (human SGLT1) [µM] | SGLT2 %-inhibition (human SGLT2) [% @ 0.3 μM] | SGLT1 %-inhibition (human SGLT1) [% @ 0.3 μM] | Compound | further results |
| --- | --- | --- | --- | --- | --- |
| 0.025 | 0.061 | – | – | CCc1c(Cc2ccc3c(c2)OCCO3)cc([C@@H]2O[C@H](CO)[C@@H](F)[C@H](O)[C@H]2O)c2c1CCO2 [Compound 180] | – |
| – | – | 19.2 | 32.6 | CN1CCCc2ccc(Cc3cc([C@@H]4O[C@H](CO)[C@@H](F)[C@H](O)[C@H]4O)cc4c3OCC4)cc21 [Compound 94] | – |
| 0.147 | 0.698 | – | – | OC[C@H]1O[C@@H](c2cc3c(c(Cc4ccc5c(c4)SCCO5)c2)OCC3)[C@H](O)[C@@H](O)[C@@H]1F [Compound 124] | – |
| – | – | 69.9 | 30.3 | COc1cc(Cl)c(Cc2cc3c(s2)CCN(C(C)=O)C3)cc1[C@@H]1O[C@H](CO)[C@@H](F)[C@H](O)[C@H]1O [Compound 77] | – |
| 0.241 | – | – | – | COc1cc(O)c([C@@H]2O[C@H](CC#N)[C@@H](F)[C@H](O)[C@H]2O)cc1Cc1cc2ccccc2s1 [Compound 22] | inhibition at 0.3 µM (human SGLT1): 62.7% |
| 0.006 | 0.018 | – | – | OC[C@H]1O[C@@H](c2cc(Cc3cc4ccccc4s3)c(Cl)cc2O)[C@H](O)[C@@H](O)[C@@H]1F [Compound 7] | – |
| 0.007 | 0.045 | – | – | [2H]C1([2H])Oc2ccc(Cc3cc([C@@H]4O[C@H](CO)[C@@H](F)[C@H](O)[C@H]4O)c(OC)c4c3OCC4)cc2OC1([2H])[2H] [Compound 172, (2S,3R,4R,5S,6R)-5-fluoro-6-(hydroxymethyl)-2-[4-methoxy-7-[(2,2,3,3-tetradeuterio-1,4-benzodioxin-6-yl)methyl]-2,3-dihydrobenzofuran-5-yl]tetrahydropyran-3,4-diol] | – |
| – | – | 62.7 | 45.3 | CC1COc2c(Cc3ccc4c(c3)OCCO4)cc(C3OC(CO)C(F)C(O)C3O)cc21 (mixture of isomers) [Compound 95] | – |
| 0.024 | 0.1 | – | – | COc1cc(OC)c([C@@H]2O[C@H](CO)[C@@H](F)[C@H](O)[C@H]2O)cc1Cc1cc2ccccc2s1 [Compound 12] | – |
| – | – | 18.0 | 2.6 | CCc1ccc([C@@H]2O[C@H](CO)[C@@H](F)[C@H](O)[C@H]2O)cc1Cc1ccc2c(c1)OC(F)(F)O2 [Compound 158] | – |
| 0.021 | 0.055 | – | – | Cc1c(Cc2cc3ccccc3s2)cc([C@@H]2O[C@H](CO)[C@@H](F)[C@H](O)[C@H]2O)c2c1CCO2 [Compound 68] | – |
| 0.036 | 0.101 | – | – | Cc1cc(O)c([C@@H]2O[C@H](CO)[C@@H](F)[C@H](O)[C@H]2O)cc1Cc1cc2c(s1)CCN(C(=O)c1nccs1)C2 [Compound 84, (2-(5-((2S,3R,4R,5S,6R)-5-fluoro-3,4-dihydroxy-6-(hydroxymethyl)-tetrahydro-2H-pyran-2-yl)-4-hydroxy-2-methylbenzyl)-6,7-dihydrothieno[3,2-c]pyridin-5(4H)-yl)(thiazol-2-yl)methanone] | – |
| 0.012 | 0.087 | – | – | [2H]C1([2H])Oc2ccc(Cc3cc([C@@H]4O[C@H](CO)[C@@H](F)[C@H](O)[C@H]4O)ccc3CC)cc2OC1([2H])[2H] [Compound 175] | – |
| – | – | 82.1 | 29.4 | COc1cc(Cl)c(Cc2cc3c(s2)CCN(C(=O)c2nccs2)C3)cc1[C@@H]1O[C@H](CO)[C@@H](F)[C@H](O)[C@H]1O [Compound 106] | – |
| 0.011 | 0.156 | – | – | Cc1cc(O)c([C@@H]2O[C@H](CO)[C@@H](F)[C@H](O)[C@H]2O)cc1Cc1cc2c(s1)CCCC2=O [Compound 119] | – |
| – | – | – | – | OC[C@H]1O[C@@H](c2cc(Cc3ccc4c(c3)OCCO4)c(O)c3c2OCC3)[C@H](O)[C@@H](O)[C@@H]1F [Compound 98, (2S,3R,4R,5S,6R)-2-[5-(2,3-dihydro-1,4-benzodioxin-6-ylmethyl)-4-hydroxy-2,3-dihydrobenzofuran-7-yl]-5-fluoro-6-(hydroxymethyl)tetrahydropyran-3,4-diol] | inhibition at 0.3 µM (human SGLT2): 26%; inhibition at 0.3 µM (human SGLT1): 30.9% |
| 0.011 | 0.245 | – | – | [2H]C([2H])(c1ccc2c(c1)OCCO2)c1cc([C@@H]2O[C@H](CO)[C@@H](F)[C@H](O)[C@H]2O)ccc1Cl [Compound 166] | – |
| 0.038 | 0.29 | – | – | Cc1cc(O)c([C@@H]2O[C@H](CO)[C@@H](F)[C@H](O)[C@H]2O)cc1Cc1cc2c(s1)CCN(C(=O)C1CCCC1)C2 [Compound 86, Cyclopentyl(2-(5-((2S,3R,4R,5S,6R)-5-fluoro-3,4-dihydroxy-6-(hydroxymethyl)-tetrahydro-2H-pyran-2-yl)-4-hydroxy-2-methylbenzyl)-6,7-dihydrothieno[3,2-c]pyridin-5(4H)-yl)methanone] | – |
| – | – | 65.5 | 31.7 | COc1cc(C)c(Cc2cc3c(s2)CCN(C(=O)C2CCCC2)C3)cc1[C@@H]1O[C@H](CO)[C@@H](F)[C@H](O)[C@H]1O [Compound 91] | – |
| – | – | 56.1 | 68.9 | [2H]C([2H])(c1ccc2c(c1)OC([2H])([2H])C([2H])([2H])O2)c1cc([C@@H]2O[C@H](CO)[C@@H](F)[C@H](O)[C@H]2O)ccc1CC [Compound 176] | – |
| 0.007 | 0.096 | – | – | COc1c(Cc2ccc3c(c2)OCCO3)cc([C@@H]2O[C@H](CO)[C@@H](F)[C@H](O)[C@H]2O)c2c1CCO2 [Compound 101, (2S,3R,4R,5S,6R)-2-[5-(2,3-dihydro-1,4-benzodioxin-6-ylmethyl)-4-methoxy-2,3-dihydrobenzofuran-7-yl]-5-fluoro-6-(hydroxymethyl)tetrahydropyran-3,4-diol] | – |
| – | – | – | – | Cc1ccc([C@@H]2O[C@H](CO)[C@@H](F)[C@H](O)[C@H]2O)cc1Cc1cc2c(s1)CCN(C#N)C2 [Compound 92, 2-(5-((2S,3R,4R,5S,6R)-5-fluoro-3,4-dihydroxy-6-(hydroxymethyl)-tetrahydro-2H-pyran-2-yl)-2-methylbenzyl)-6,7-dihydrothieno[3,2-c]pyridine-5(4H)-carbonitrile] | inhibition at 0.3 µM (human SGLT2): 76.2%; inhibition at 0.3 µM (human SGLT1): 29% |
| – | – | 83.5 | 28.9 | COc1cc(Cl)c(Cc2cc3c(s2)CCN(C#N)C3)cc1[C@@H]1O[C@H](CO)[C@@H](F)[C@H](O)[C@H]1O [Compound 99] | – |
| – | – | 80.1 | 37.9 | [2H]C([2H])(c1ccc2c(c1)OCCO2)c1cc([C@@H]2O[C@H](CO)[C@@H](F)[C@H](O)[C@H]2O)ccc1C [Compound 167] | – |
